Experimental data taken from patent US8383880B2, “Infertility control of genetically modified fish” (Academia Sinica, priority 2009, dated 2013).

Experiments:
[1] = tested on: AB strain zebrafish embryos; test: Tolerable concentration of Mtz for zebrafish (consecutive immersion of embryos); type: in vivo; conditions: for larvae dead: at 5 dpf
Experimental: In order to determine the tolerable concentration of Mtz for zebrafish, AB strain zebrafish embryos at the single-cell stage were incubated at 28° C. in a range of Mtz concentrations (0-20 mM). We observed obvious abnormal development of larvae at 3 days postfertilization (dpf). The larvae were dead at 5 dpf after consecutive immersions in […] Mtz (100%, n=26/26) and 20 mM Mtz (100%, n=30/30). The nonspecific death of the larvae was first observed at 6 dpf after consecutive immersions in 10 mM Mtz (23%, n=7/30). In contrast, we observed that no larvae died after at least 10 dpf of consecutive immersion in 5 mM Mtz (0%, n=30). Therefore, the optimal Mtz concentration used in the present experiment was 5 mM.

[2] = tested on: 14 dpf transgenic embryos; test: Metronidazole dependent cell ablation, dose response in ablating gonad; type: in vivo, zebrafish; conditions: 5 mM Met, 14 dpf larvae
Experimental: Metronidazole (Met, M3761, Sigma) was dissolved in a standard zebrafish embryo medium with vigorous agitation. Embryos were incubated at 28° C. in the dark, and 14-21 dpf transgenic embryos were used to study the dose response of Met in ablating gonad. In initial studies, 14 dpf embryos were incubated in a range of Met concentrations (1-10 mM).

Tg(Asp-eGFP:Ntr) = test: Fertility assessment; type: in vivo, zebrafish
Experimental: (§1) Fertility was assessed by pairing each heterozygous transgenic fish with a WT mate. At least 20 transgenic fish were tested for each line, and the numbers of fertile zebrafish were compared with wild-type fish. Each male was assessed with multiple females. Zebrafish were labeled infertile if they were unable to produce offspring over a 4-month period.
(§2) To assess the fertility of Met-treated transgenic zebrafish lines, Tg(Asp-eGFP:Ntr), Tg(Odf-eGFP:Ntr), and Tg(Sam-eGFP:Ntr) lines were crossed with wild-type zebrafish (100-200 eggs per line; three mating pairs per line). The reproductive parameters were compared with wild-type pairs of the same strain (100-200 eggs per five mating pairs). […] In fact, the infertility of Met-treated Tg(Asp-eGFP:Ntr) transgenic males mated with wild-type female fish increased by over 68.0% compared to that of wild-type. […] However, Met-treated transgenic female lines remained fertile as wild-type female.
(§3) After establishing breeding colonies of these three transgenic lines, Tg(Asp-eGFP:Ntr), Tg(Odf-eGFP:Ntr), and Tg(Sam-eGFP:Ntr), it became clear that the male transgenic fish were at intermediate levels of infertility while the female transgenic fish remained fertile after Met treatment. None of the Met-treated adult males crossed with wild-type females were fully successful in spawning fertilized eggs (Table 1). […] To reach high or full (100%) levels of male infertility in Met-treated transgenic zebrafish lines, we generated compound transgenic lines, Tg(AO-eGFP:Ntr), Tg(AS-eGFP:Ntr), Tg(OS-eGFP:Ntr), and Tg(AOS-eGFP:Ntr) by crossing each other of Tg(Asp-eGFP:Ntr), Tg(Odf-eGFP:Ntr), and Tg(Sam-eGFP:Ntr), then examined male infertility after Met treatment (Table 2). At 4 months of age, Met-treated compound transgenic males had three mediate (76.4%), intermediate high (85.7%), high (95.0%), and full (100%) levels of infertility for Tg(OS-eGFP:Ntr), Tg(AO-eGFP:Ntr), Tg(AS-eGFP:Ntr), and Tg(AOS-eGFP:Ntr), respectively. Met-treated compound transgenic females crossed with wild-type zebrafish remained fertile. No gross abnormalities were apparent in any of the Met-untreated compound transgenic zebrafish lines or Met-treated double transgenic females.

Tg(Odf-eGFP:Ntr) = test: Fertility assessment; type: in vivo, zebrafish
Experimental: as §1, §2, §3

Tg(Sam-eGFP:Ntr) = test: Fertility assessment; type: in vivo, zebrafish
Experimental: as §1, §2, §3

Wild type = test: Fertility assessment; type: in vivo, zebrafish; conditions: 5 mM Met every other day for 1 week; for Female infertility, Met+: Wild type females; for Male infertility, Met+: Wild type males
Experimental: as §1, §2, §3

Tg(AO-eGFP:Ntr) = test: Fertility assessment, compound transgenic line; type: in vivo, zebrafish; conditions: Tg(AO-EGFP:Ntr) females, 5 mM Met every other day for 1 week
Description: (§4) To generate compound transgenic lines, the homozygous transgenic zebrafish of each line, Tg(Asp-eGFP:Ntr), Tg(Odf-eGFP:Ntr), and Tg(Sam-eGFP:Ntr), were then crossed with each other to generate double transgenic fish, Tg(AO-eGFP:Ntr)[Tg(Asp-eGFP:Ntr);Tg(Odf-eGFP:Ntr)], Tg(AS-eGFP:Ntr)[Tg(Asp-eGFP:Ntr);Tg(Sam-eGFP:Ntr)], and Tg(OS-eGFP:Ntr)[Tg(Odf-eGFP:Ntr);Tg(Sam-eGFP:Ntr)] and triple-transgenic fish, Tg(AOS-eGFP:Ntr)[Tg(Asp-eGFP:Ntr; Odf-eGFP:Ntr;Sam-eGFP:Ntr)] for experiments. RT-PCR was performed to test the expression of eGFP:Ntr in the testes of all lines. Animals from each cross were divided into four groups based on genotype. The four groups were then used to assess fertility in response to Met administration.
as §1, §3

Tg(AOS-eGFP:Ntr) = test: Fertility assessment, compound transgenic line; type: in vivo, zebrafish
Description: as §4, §1, §3

Tg(AS-eGFP:Ntr) = test: Fertility assessment, compound transgenic line; type: in vivo, zebrafish; conditions: Tg(AS-EGFP:Ntr) females, 5 mM Met every other day for 1 week
Description: as §4, §1, §3

Tg(OS-eGFP:Ntr) = test: Fertility assessment, compound transgenic line; type: in vivo, zebrafish; conditions: Tg(OS-EGFP:Ntr) females, 5 mM Met every other day for 1 week
Description: as §4, §1, §3

Cc1ncc([N+](=O)[O-])n1CCO [Mtz]
larvae dead ([1]; 15 nM Mtz, n=26/26): 100% | larvae died ([1]; 5 mM Mtz, at least 10 dpf, n=30): 0% | nonspecific death of the larvae ([1]; 10 mM Mtz, first observed at 6 dpf, n=7/30): 23% | larvae dead ([1]; 20 mM Mtz, n=30/30): 100% | deleterious effects on larvae [2]: no deleterious effects | infertility increased compared to that of wild-type (Tg(Asp-eGFP:Ntr); Met-treated Tg(Asp-eGFP:Ntr) males mated with wild-type female): over 68.0% | Female infertility, Met+ (Tg(Asp-eGFP:Ntr); Tg(Asp-EGFP:Ntr) females, 5 mM Met every other day for 1 week): 0/25 (0%) | Male infertility, Met+ (Tg(Asp-eGFP:Ntr); Tg(Asp-EGFP:Ntr) males, 5 mM Met every other day for 1 week): 17/25 (68.0%) | infertility increased compared to that of wild type (Tg(Odf-eGFP:Ntr); Met-treated Tg(Odf-eGFP:Ntr) males mated with wild-type female): over 59.1% | Female infertility, Met+ (Tg(Odf-eGFP:Ntr); Tg(Odf-EGFP:Ntr) females, 5 mM Met every other day for 1 week): 0/22 (0%) | Male infertility, Met+ (Tg(Odf-eGFP:Ntr); Tg(Odf-EGFP:Ntr) males, 5 mM Met every other day for 1 week): 13/22 (59.1%) | infertility increased compared to that of wild type (Tg(Sam-eGFP:Ntr); Met-treated Tg(Sam-eGFP:Ntr) males mated with wild-type female): > 54.1% | Female infertility, Met+ (Tg(Sam-eGFP:Ntr); Tg(Sam-EGFP:Ntr) females, 5 mM Met every other day for 1 week): 0/24 (0%) | Male infertility, Met+ (Tg(Sam-eGFP:Ntr); Tg(Sam-EGFP:Ntr) males, 5 mM Met every other day for 1 week): 13/24 (54.1%) | Female infertility, Met+ (Wild type; Table 1 (n=28)): 0/28 (0%) | Female infertility, Met+ (Wild type; Table 2 (n=30)): 0/30 (0%) | Male infertility, Met+ (Wild type; Table 1 (n=28)): 0/28 (0%) | Male infertility, Met+ (Wild type; Table 2 (n=30)): 0/30 (0%) | Female infertility, Met+ (Tg(AO-eGFP:Ntr)): 0/35 (0%) | Female infertility, Met+ (Tg(AOS-eGFP:Ntr); Tg(AOS-EGFP:Ntr) females, 5 mM Met every other day for 1 week): 0/38 (0%) | lethality in male triple-transgenic fish (Tg(AOS-eGFP:Ntr); male Tg(AOS-eGFP:Ntr), 5 mM Met treatment for 1 week, listed as Met): occasionally died | Female infertility, Met+ (Tg(AS-eGFP:Ntr)): 0/40 (0%) | Female infertility, Met+ (Tg(OS-eGFP:Ntr)): 0/34 (0%)
